Assay results: patent US7883715B2, “Pesticide compositions containing dicarboxylic acids” (Monsanto Technology LLC, priority 2002, dated 2011)
Read-outs that look alike come from different tables or passages of the source.

Legend:
ECHCF = experiment: Greenhouse herbicidal effectiveness, ECHCF; assay type: in vivo, Japanese millet, barnyardgrass; details: Table 19A, 16 days after treatment
Text: (§1) The following greenhouse testing procedure was used for evaluating compositions of the Examples to determine herbicidal effectiveness, except where otherwise indicated.
(§2) Seeds of the plant species indicated were planted in 88 mm square pots in a soil mix which was previously sterilized and prefertilized with a 14-14-14 NPK slow release fertilizer at a rate of 3.6 kg/m3. The pots were placed in a greenhouse with sub-irrigation. About one week after emergence, seedlings were thinned as needed, including removal of any unhealthy or abnormal plants, to create a uniform series of test pots.
(§3) The plants were maintained for the duration of the test in the greenhouse where they received a minimum of 14 hours of light per day. […] Exposure temperatures were not precisely controlled but averaged about 29° C. during the day and about 21° C. during the night. Plants were sub-irrigated throughout the test to ensure adequate soil moisture levels.
(§4) Pots were assigned to different treatments in a fully randomized experimental design with 6 replications. A set of pots was left untreated as a reference against which affects of the treatments could later be evaluated.
(§5) Application of glyphosate compositions was made by spraying with a track sprayer fitted with a 9501E nozzle calibrated to deliver a spray volume of 93 liters per hectare (l/ha) at a pressure of 165 kilopascals (kPa). After treatment, pots were returned to the greenhouse until ready for evaluation.
(§6) Treatments were made using dilute aqueous compositions. These could be prepared as spray compositions directly from their ingredients, or by dilution with water of preformulated concentrate compositions.
(§7) For evaluation of herbicidal effectiveness, all plants in the test were examined by a single practiced technician, who recorded percent control, a visual measurement of the effectiveness of each treatment by comparison with untreated plants. […] The reported % control values represent the average for all replicates of each treatment.

ABUTH = experiment: Greenhouse herbicidal effectiveness, ABUTH; assay type: in vivo, velvetleaf; details: for efficacy ABUTH: Table 19A, 16 days after treatment; for inhibition at 2 g/ha / inhibition at 3 g/ha / inhibition at 4 g/ha / inhibition at 5 g/ha: Abutilon theophrasti
Text: as §1, §2, §3, §4, §5, §6, §7

TRZVX = experiment: Greenhouse herbicidal effectiveness, TRZVX; assay type: in vivo, wheat; details: Table 19A, 16 days after treatment
Text: as §1, §2, §3, §4, §5, §6, §7

plants = experiment: Whole plant response to oxalic acid by itself; assay type: in vivo; details: enzyme studies and whole plant response
Text: Glyphosate inhibits the shikimic acid pathway which leads to the biosynthesis of aromatic compounds including amino acids, plant hormones and vitamins. Specifically, glyphosate curbs the conversion of phosphoenolpyruvic acid (PEP) and 3-phosphoshikimic acid to 5-enolpyruvyl-3-phosphoshikimic acid by inhibiting the EPSPS enzyme. It is believed that oxalic acid and other dicarboxylic acids enhance the binding efficiency of glyphosate to the S3P-EPSPS complex, resulting in a whole plant response to the oxalate at a given glyphosate concentration. […] This would lower the Kd of the S3P-EPSPS-glyphosate ternary complex. Data reported in the literature from x-ray crystallography have clearly identified the 427 amino acid side chains. Each of the six α-helices in the top domain and four of the six α-helices in the lower domain are capped with basic amino acid residues. Electrostatic interaction of a dicarboxylic acid or other compound of the proper stearic requirement with these basic amino acid residues on the surface of the two domains of the enzyme are believed to produce a stapling action. Such stapling action is possible only on at least a partially closed conformation of the ternary complex of S3P-EPSPS-glyphosate. […] Any compound with stapling action to close the ternary complex tighter, thereby enhancing the inhibition of the enzyme is a suitable enhancer component of the invention.

EPSPS enzyme = molecular target: T1, EPSPS enzyme (Escherichia coli, UniProt P0A6D3); experiment: Enzyme studies of EPSPS inhibition; assay type: biochemical; details: oxalic acid without glyphosate
T1 sequence (P0A6D3 1-427): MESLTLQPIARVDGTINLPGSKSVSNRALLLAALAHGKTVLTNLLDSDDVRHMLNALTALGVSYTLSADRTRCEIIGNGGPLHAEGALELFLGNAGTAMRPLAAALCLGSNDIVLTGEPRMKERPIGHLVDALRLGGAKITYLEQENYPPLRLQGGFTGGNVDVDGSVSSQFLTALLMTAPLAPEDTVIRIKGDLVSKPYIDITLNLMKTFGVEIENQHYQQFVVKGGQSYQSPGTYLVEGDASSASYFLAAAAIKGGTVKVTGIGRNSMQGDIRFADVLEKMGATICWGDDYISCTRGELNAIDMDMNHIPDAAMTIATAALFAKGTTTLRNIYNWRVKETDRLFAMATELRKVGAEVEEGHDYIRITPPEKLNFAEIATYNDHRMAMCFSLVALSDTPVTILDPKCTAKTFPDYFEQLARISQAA
Text: It has been discovered that oxalic acid and derivatives thereof enhance the pesticidal activity of a pesticide by acting as either an allosteric or cooperative effecter of the inhibition of the target enzyme 5-enolpyruvylishikimate-3-phosphate synthase (hereinafter referred to as EPSP synthase or EPSPS). For example, oxalic acid increases the inhibition of EPSPS enzyme by glyphosate to enhance the physiological response of plants at the enzyme level. […] In other words, the oxalic acid is absorbed and systemically transported throughout the plant.
Glyphosate inhibits the shikimic acid pathway which leads to the biosynthesis of aromatic compounds including amino acids, plant hormones and vitamins. Specifically, glyphosate curbs the conversion of phosphoenolpyruvic acid (PEP) and 3-phosphoshikimic acid to 5-enolpyruvyl-3-phosphoshikimic acid by inhibiting the EPSPS enzyme. It is believed that oxalic acid and other dicarboxylic acids enhance the binding efficiency of glyphosate to the S3P-EPSPS complex, resulting in a whole plant response to the oxalate at a given glyphosate concentration. […] This would lower the Kd of the S3P-EPSPS-glyphosate ternary complex. Data reported in the literature from x-ray crystallography have clearly identified the 427 amino acid side chains. […]

[1] = 30 g a.e./ha, tank mix OTH1 1 % v/v
[2] = 70 g a.e./ha, tank mix OTH1 1 % v/v
[3] = 100 g a.e./ha, tank mix OTH1 1 % v/v
[4] = 200 g a.e./ha, tank mix OTH1 1 % v/v
[5] = 1 g a.e./ha, tank mix OTH1 1 % v/v
[6] = 3 g a.e./ha, tank mix OTH1 1 % v/v
[7] = 5 g a.e./ha, tank mix OTH1 1 % v/v
[8] = 10 g a.e./ha, tank mix OTH1 1 % v/v

## C[C@@H](Oc1ccc(Oc2ccc(C(F)(F)F)cn2)cc1)C(=O)O [fluazifop-p]
ECHCF; 30 g a.e./ha, no OTH1
  efficacy ECHCF: 98
ECHCF; [1]
  efficacy ECHCF: 97
ECHCF; 70 g a.e./ha, no OTH1
  efficacy ECHCF: 100
ECHCF; [2]
  efficacy ECHCF: 100
ECHCF; 100 g a.e./ha, no OTH1
  efficacy ECHCF: 100
ECHCF; [3]
  efficacy ECHCF: 100
ECHCF; 200 g a.e./ha, no OTH1
  efficacy ECHCF: 100
ECHCF; [4]
  efficacy ECHCF: 100
ABUTH; 30 g a.e./ha, no OTH1
  efficacy ABUTH: 0, 0, 0, 0
ABUTH; [1]
  efficacy ABUTH: 0, 0, 0, 0
ABUTH; 70 g a.e./ha, no OTH1
  efficacy ABUTH: 0, 0, 0, 0
ABUTH; [2]
  efficacy ABUTH: 0, 0, 0, 0
ABUTH; 100 g a.e./ha, no OTH1
  efficacy ABUTH: 0, 0, 0, 0
ABUTH; [3]
  efficacy ABUTH: 0, 0, 0, 0
ABUTH; 200 g a.e./ha, no OTH1
  efficacy ABUTH: 0, 0, 0, 0
ABUTH; [4]
  efficacy ABUTH: 0, 0, 0, 0
TRZVX; 30 g a.e./ha, no OTH1
  efficacy TRZVX: 70
TRZVX; [1]
  efficacy TRZVX: 73
TRZVX; 70 g a.e./ha, no OTH1
  efficacy TRZVX: 85
TRZVX; [2]
  efficacy TRZVX: 83
TRZVX; 100 g a.e./ha, no OTH1
  efficacy TRZVX: 91
TRZVX; [3]
  efficacy TRZVX: 93
TRZVX; 200 g a.e./ha, no OTH1
  efficacy TRZVX: 97
TRZVX; [4]
  efficacy TRZVX: 98

## COc1cc(OC)nc(NC(=O)NS(=O)(=O)c2ncccc2C(=O)N(C)C)n1 [nicosulfuron]
ECHCF; 1 g a.e./ha, no OTH1
  efficacy ECHCF: 0.8
ECHCF; [5]
  efficacy ECHCF: 4
ECHCF; 3 g a.e./ha, no OTH1
  efficacy ECHCF: 13
ECHCF; [6]
  efficacy ECHCF: 10
ECHCF; 5 g a.e./ha, no OTH1
  efficacy ECHCF: 40
ECHCF; [7]
  efficacy ECHCF: 37
ECHCF; 10 g a.e./ha, no OTH1
  efficacy ECHCF: 51
ECHCF; [8]
  efficacy ECHCF: 42
ABUTH; 1 g a.e./ha, no OTH1
  efficacy ABUTH: 0.8
ABUTH; [5]
  efficacy ABUTH: 6
ABUTH; 3 g a.e./ha, no OTH1
  efficacy ABUTH: 12
ABUTH; [6]
  efficacy ABUTH: 8
ABUTH; 5 g a.e./ha, no OTH1
  efficacy ABUTH: 14
ABUTH; [7]
  efficacy ABUTH: 10
ABUTH; 10 g a.e./ha, no OTH1
  efficacy ABUTH: 28
ABUTH; [8]
  efficacy ABUTH: 58
TRZVX; 1 g a.e./ha, no OTH1
  efficacy TRZVX: 5
TRZVX; [5]
  efficacy TRZVX: 3
TRZVX; 3 g a.e./ha, no OTH1
  efficacy TRZVX: 15
TRZVX; [6]
  efficacy TRZVX: 25
TRZVX; 5 g a.e./ha, no OTH1
  efficacy TRZVX: 50
TRZVX; [7]
  efficacy TRZVX: 47
TRZVX; 10 g a.e./ha, no OTH1
  efficacy TRZVX: 65
TRZVX; [8]
  efficacy TRZVX: 67

## O=C(O)C(=O)O [oxalic acid, Oxalic Acid]
plants
  herbicidal property by itself: does not have any herbicidal property
EPSPS enzyme
  inhibitory effect on the EPSPS enzyme per se: do not have any inhibitory effect on the enzyme per se
ABUTH; 336 h, read-out: % inhibition ABUTH (14 DAT), oxalate/oxalic acid alone, 2 g a.e./ha, 14 DAT, Table 44A
  inhibition at 2 g/ha: 0%
ABUTH; 336 h, read-out: % inhibition ABUTH (14 DAT), oxalate/oxalic acid alone, 3 g a.e./ha, 14 DAT, Table 44A
  inhibition at 3 g/ha: 0%
ABUTH; 336 h, read-out: % inhibition ABUTH (14 DAT), oxalate/oxalic acid alone, 4 g a.e./ha, 14 DAT, Table 44A
  inhibition at 4 g/ha: 0%
ABUTH; 336 h, read-out: % inhibition ABUTH (14 DAT), oxalate/oxalic acid alone, 5 g a.e./ha, 14 DAT, Table 44A
  inhibition at 5 g/ha: 0%
ABUTH; 480 h, read-out: % inhibition ABUTH (20 DAT), oxalate/oxalic acid alone, 2 g a.e./ha, 20 DAT, Table 44A
  inhibition at 2 g/ha: 0%
ABUTH; 480 h, read-out: % inhibition ABUTH (20 DAT), oxalate/oxalic acid alone, 3 g a.e./ha, 20 DAT, Table 44A
  inhibition at 3 g/ha: 0%
ABUTH; 480 h, read-out: % inhibition ABUTH (20 DAT), oxalate/oxalic acid alone, 4 g a.e./ha, 20 DAT, Table 44A
  inhibition at 4 g/ha: 0%
ABUTH; 480 h, read-out: % inhibition ABUTH (20 DAT), oxalate/oxalic acid alone, 5 g a.e./ha, 20 DAT, Table 44A
  inhibition at 5 g/ha: 0%

## c1cc[n+]2c(c1)-c1cccc[n+]1CC2 [diquat]
ECHCF; 30 g a.e./ha, no OTH1
  efficacy ECHCF: 19
ECHCF; [1]
  efficacy ECHCF: 11
ECHCF; 70 g a.e./ha, no OTH1
  efficacy ECHCF: 33
ECHCF; [2]
  efficacy ECHCF: 24
ECHCF; 100 g a.e./ha, no OTH1
  efficacy ECHCF: 43
ECHCF; [3]
  efficacy ECHCF: 33
ECHCF; 200 g a.e./ha, no OTH1
  efficacy ECHCF: 46
ECHCF; [4]
  efficacy ECHCF: 50
ABUTH; 30 g a.e./ha, no OTH1
  efficacy ABUTH: 5
ABUTH; [1]
  efficacy ABUTH: 10
ABUTH; 70 g a.e./ha, no OTH1
  efficacy ABUTH: 15
ABUTH; [2]
  efficacy ABUTH: 30
ABUTH; 100 g a.e./ha, no OTH1
  efficacy ABUTH: 20
ABUTH; [3]
  efficacy ABUTH: 41
ABUTH; 200 g a.e./ha, no OTH1
  efficacy ABUTH: 32
ABUTH; [4]
  efficacy ABUTH: 57
TRZVX; 30 g a.e./ha, no OTH1
  efficacy TRZVX: 3
TRZVX; [1]
  efficacy TRZVX: 14
TRZVX; 70 g a.e./ha, no OTH1
  efficacy TRZVX: 7
TRZVX; [2]
  efficacy TRZVX: 16
TRZVX; 100 g a.e./ha, no OTH1
  efficacy TRZVX: 27
TRZVX; [3]
  efficacy TRZVX: 19
TRZVX; 200 g a.e./ha, no OTH1
  efficacy TRZVX: 46
TRZVX; [4]
  efficacy TRZVX: 47
